Reference: US11661413B2, “Pyrazole compounds or salts thereof, preparation method therefor, herbicidal composition and use thereof” (priority 2015, dated 2023)

What was measured:
[1] = system: barnyard grass, rushlike bulrush, arrowhead and beggartick; assay: resistance tests of the weeds collected from Heilongjing Province; assay type: in vivo; conditions: common application rate; seeds collected from Heilongjing Province of China
[2] = system: Arrowhead; assay: weed control effect in transplanted rice field (pot, water application); assay type: in vivo, Sagittaria trifolia; conditions: 500 g a.i./ha, treated at primary leaf stage, 14 days after treatment, naked eye, weed resistant to pyrazosulfuron-ethyl
Protocol: (§1) Rice field soil was loaded into a 1/1,000,000 ha pot. The seeds of Echinochloa, Scirpus juncoides, Bidens tripartite and Sagittaria trifolia were sowed and gently covered with soil, then left to stand still in greenhouse in the state of 0.5-1 cm of water storage. The tuber of Sagittaria trifolia was planted in the next day or 2 days later. It was kept at 3-4 cm of water storage thereafter. The weeds were treated by dripping the WP or SC water diluents prepared according to the common preparation method of the compounds of the present invention with pipette homogeneously to achieve specified effective amount when Echinochloa, Scirpus juncoides and Bidens tripartite reached 0.5 leaf stage and Sagittaria trifolia reached the time point of primary leaf stage.
(§2) The fertility condition of Echinochloa, Scirpus juncoides, Bidens tripartite and Sagittaria trifolia 14 days after the treatment of the compound of the invention and the fertility condition of rice 21 days after the treatment of the compound of the invention respectively with the naked eye.
(§3) Note: The seeds of barnyard grass, rushlike bulrush, arrowhead and beggartick are collected from Heilongjing Province of China. Tests indicate that the weeds are resistant to common application rate of pyrazosulfuron-ethyl.

[3] = system: rushlike bulrush; assay: as above; assay type: in vivo, Scirpus juncoides; conditions: 500 g a.i./ha, treated at 0.5 leaf stage, 14 days after treatment, naked eye, weed resistant to pyrazosulfuron-ethyl
Protocol: as §1, §2, §3

[4] = system: Beggartick; assay: as above; assay type: in vivo, Bidens tripartite; conditions: 500 g a.i./ha, treated at 0.5 leaf stage, 14 days after treatment, naked eye, weed resistant to pyrazosulfuron-ethyl
Protocol: as §1, §2, §3

[5] = system: Barnyard grass; assay: as above; assay type: in vivo, Echinochloa; conditions: 500 g a.i./ha, treated at 0.5 leaf stage, 14 days after treatment, naked eye, weed resistant to pyrazosulfuron-ethyl
Protocol: as §1, §2, §3

[6] = system: Barnyard grass; assay: weed control effect in post emergence stage, greenhouse pot spray; assay type: in vivo; conditions: sprayed at 2-3 leaf stage, after 3 weeks
Protocol: (§4) The activity level standard of harmful plant damage (i.e. growth inhibition rate) is as follows: The above described growth control rate is fresh weight control rate. Monocotyledonous and dicotyledonous weed seeds and main crop seeds (i.e. wheat, corn, rice, soybean, cotton, oilseed, millet and Sorghum) were put into a plastic pot loaded with soil. Then covered with 0.5-2 cm soil, the seeds were allowed to grow in good greenhouse environment. The test plants were treated at 2-3 leaf stage 2-3 weeks after sowing. […] The solution was sprayed to the plants with a sprayer. Then the plants were cultured for 3 weeks in the greenhouse.

[7] = system: Flixweed; assay: as above; assay type: in vivo; conditions: 16 g/mu, sprayed at 2-3 leaf stage, after 3 weeks
Protocol: as §4

[8] = system: Rice; assay: transplanted rice safety evaluation; assay type: in vivo; conditions: transplanted 3 leaf stage japonica rice, 500 g a.i./ha, treated 5 days after transplantation, 21 days after treatment, naked eye
Protocol: In addition, the rice field soil that loaded into the 1/1,000,000 ha pot was leveled to keep water storage at 3-4 cm depth. The 3 leaf stage rice (japonica rice) was transplanted at 3 cm of transplanting depth the next day. The compound of the present invention was treated by the same way after 5 days of transplantation.
as §2

[9] = system: Corn; assay: post emergence stage greenhouse pot spray, corn safety; assay type: in vivo; conditions: 16 g/mu, sprayed at 2-3 leaf stage, after 3 weeks; note: key: 10: completely dead; above 90% growth inhibition rate; above 80% growth inhibition rate; above 70% growth inhibition rate; above 60% growth inhibition rate; above 50% growth inhibition rate; 4: above 30% growth inhibition rate; above 30% growth inhibition rate; above 20% growth inhibition rate; above 1-10% growth inhibition rate; 0: no effect
Protocol: as §4

[10] = system: Wheat; assay: post emergence stage greenhouse pot spray, wheat safety; assay type: in vivo; conditions: 16 g/mu, sprayed at 2-3 leaf stage, after 3 weeks; note: key: 10: completely dead; above 90% growth inhibition rate; above 80% growth inhibition rate; above 70% growth inhibition rate; above 60% growth inhibition rate; above 50% growth inhibition rate; 4: above 30% growth inhibition rate; above 30% growth inhibition rate; above 20% growth inhibition rate; above 1-10% growth inhibition rate; 0: no effect
Protocol: as §4

[11] = system: Ning Jing 43; assay: post emergence stage greenhouse pot spray, rice safety; assay type: in vivo; parameters: key: 10: completely dead; above 90% growth inhibition rate; above 80% growth inhibition rate; above 70% growth inhibition rate; above 60% growth inhibition rate; above 50% growth inhibition rate; 4: above 30% growth inhibition rate; above 30% growth inhibition rate; above 20% growth inhibition rate; above 1-10% growth inhibition rate; 0: no effect; conditions: sprayed at 2-3 leaf stage, after 3 weeks
Protocol: as §4

Structure (SMILES): CCOC(=O)c1cnn(C)c1S(=O)(=O)NC(=O)Nc1nc(OC)cc(OC)n1 [pyrazosulfuron-ethyl]
- resistance of the weeds (in words) [1]: resistant

Structure (SMILES): CCOC(=O)Oc1c(C(=O)c2ccc(S(C)(=O)=O)c(Cn3cc(C)cn3)c2Cl)c(C)nn1C [Compound 31]
- weed control effect (activity level), Arrowhead [2]: 9 (above 90% growth inhibition rate)
- weed control effect (activity level), rushlike bulrush [3]: 10
- weed control effect (activity level), Beggartick [4]: 10
- weed control effect (activity level), Barnyard grass [5]: 10
- weed control effect (activity level), Barnyard grass ([6]; 1 g/mu): 3 (above 30% growth inhibition rate)
- weed control effect (activity level), Barnyard grass ([6]; 2 g/mu): 5 (above 50% growth inhibition rate)
- weed control effect (activity level), Barnyard grass ([6]; 4 g/mu): 6 (above 60% growth inhibition rate)
- weed control effect (activity level), Barnyard grass ([6]; 8 g/mu): 8 (above 80% growth inhibition rate)
- weed control effect (activity level), Barnyard grass ([6]; 16 g/mu): 9 (above 90% growth inhibition rate)
- weed control effect (activity level), Flixweed [7]: 10
- damage (activity level), Rice [8]: 1 (above 1-10% growth inhibition rate)
- damage (activity level), Corn [9]: 0
- damage (activity level), Wheat [10]: 0
- damage (activity level), Ning Jing 43 ([11]; 1 g/mu): 0
- damage (activity level), Ning Jing 43 ([11]; 2 g/mu): 0
- damage (activity level), Ning Jing 43 ([11]; 4 g/mu): 0
- damage (activity level), Ning Jing 43 ([11]; 8 g/mu): 0
- damage (activity level), Ning Jing 43 ([11]; 16 g/mu): 0

Structure (SMILES): Cc1ccc(S(=O)(=O)Oc2c(C(=O)c3ccc(S(C)(=O)=O)c(Cn4nc(C)cc4C)c3Cl)c(C)nn2C)cc1 [Compound 33]
- weed control effect (activity level), Arrowhead [2]: 10
- weed control effect (activity level), rushlike bulrush [3]: 10
- weed control effect (activity level), Beggartick [4]: 10
- weed control effect (activity level), Barnyard grass [5]: 10
- weed control effect (activity level), Barnyard grass ([6]; 1 g/mu): 4 (above 30% growth inhibition rate)
- weed control effect (activity level), Barnyard grass ([6]; 2 g/mu): 6 (above 60% growth inhibition rate)
- weed control effect (activity level), Barnyard grass ([6]; 4 g/mu): 5 (above 50% growth inhibition rate)
- weed control effect (activity level), Barnyard grass ([6]; 8 g/mu): 7 (above 70% growth inhibition rate)
- weed control effect (activity level), Barnyard grass ([6]; 16 g/mu): 8 (above 80% growth inhibition rate)
- weed control effect (activity level), Flixweed [7]: 10
- damage (activity level), Rice [8]: 1 (above 1-10% growth inhibition rate)
- damage (activity level), Corn [9]: 0
- damage (activity level), Wheat [10]: 0
- damage (activity level), Ning Jing 43 ([11]; 1 g/mu): 0
- damage (activity level), Ning Jing 43 ([11]; 2 g/mu): 0
- damage (activity level), Ning Jing 43 ([11]; 4 g/mu): 0
- damage (activity level), Ning Jing 43 ([11]; 8 g/mu): 0
- damage (activity level), Ning Jing 43 ([11]; 16 g/mu): 0
